The record followed here is patent US11839613B2, “Pyrimidine derivatives as PGE2 receptor modulators” (IDORSIA PHARMACEUTICALS LTD, priority 2017, dated 2023).

The target of experiment [1] is PTGER4 (EP4) (Homo sapiens (Human), UniProt P35408). Description: cell-based.
Experiment [2] addresses EP4 (Homo sapiens (Human), UniProt P35408). Kind of experiment: hEP4 cAMP assay (BT549 breast cancer cells, HTRF cAMP). The format is cell-based. The conditions noted are these: antagonistic activity, PGE2 6 nM. The text has this:
(§1) Human tumor cell lines expressing endogenously either EP4 or EP2 are used and cAMP accumulation in cells upon PGE2 stimulation is monitored. SF295 glioblastoma cells express high endogenous EP2 and no EP4, whereas BT549 breast cancer cells, express high endogenous EP4 levels and very low EP2 levels.
(§2) As a detection method for cAMP the HTRF (homogeneous time resolved fluorescence) Cisbio kit (HTRF cAMP dynamic 2 kit 20'000 tests Cisbio Cat. #62AM4PEC) was used, which is based on a competitive immunoassay using a Cryptate-labeled anti-cAMP antibody and d2-labeled cAMP. Native cAMP produced by cells or unlabeled cAMP (for the standard curve) compete with exogenously added d2-labeled cAMP (acceptor) for binding to monoclonal anti-cAMP-Eu3+Cryptate (donor). A FRET signal (Fluorescence Resonance Energy Transfer) is obtained only if the labeled anti-cAMP antibody binds the d2 labelled cAMP, thus the specific signal (i.e. energy transfer) is inversely proportional to the concentration of cAMP in the standard or sample.
(§3) Cells are counted washed and resuspended in assay buffer (AB; HBSS, 20 mM HEPES, 0.2% BSA; 2 mM IBMX).
Plate is pre-incubated 45 minutes at RT. Subsequently, 2.5 microliters of PGE2 (final conc. 6 nM) are transferred into the assay plate. Plate is incubated 30 minutes at RT.
For orientation: cAMP levels reflect the balance of adenylyl cyclase and phosphodiesterase activity.

In experiment [3] the target is EP2 (Homo sapiens (Human), UniProt P43116). Kind of experiment: hEP2 cAMP assay (SF295 glioblastoma cells, HTRF cAMP). The following applies: antagonistic activity. It is filed as cell-based.
EP2, sequence (P43116 whole entry): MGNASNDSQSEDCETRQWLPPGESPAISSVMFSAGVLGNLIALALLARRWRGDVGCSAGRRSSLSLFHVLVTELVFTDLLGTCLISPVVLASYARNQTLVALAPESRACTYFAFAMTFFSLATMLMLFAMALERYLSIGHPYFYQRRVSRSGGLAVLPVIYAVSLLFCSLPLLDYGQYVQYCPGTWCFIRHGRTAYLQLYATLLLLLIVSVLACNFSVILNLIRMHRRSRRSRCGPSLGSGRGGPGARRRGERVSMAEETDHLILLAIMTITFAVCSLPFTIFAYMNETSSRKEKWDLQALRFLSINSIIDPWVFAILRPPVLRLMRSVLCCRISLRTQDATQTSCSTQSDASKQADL
From the text: as §1, §2, §3
Plate is pre-incubated 45 minutes at RT. […] Plate is incubated 30 minutes at RT.

Experiment [4] addresses PTGER2 (EP2) (Homo sapiens (Human), UniProt P43116). Kind of experiment: hEP2 b-arrestin assay (PathHunter HEK 293 PTGER2 b-arrestin cells). The format is cell-based. The conditions noted are these: antagonistic activity, beta-arrestin assay; read-out: hEP2 b-arr IC50. On the procedure: Plate is pre-incubated 15 minutes at 37° C. Then five microliters of PGE2 (final conc. 5 μM) are transferred into the assay plate. Plate is incubated 120 minutes at 37° C.
(each concentration is measured in duplicate)

Molecules are shown by their SMILES.

EP4, sequence (P35408 whole entry): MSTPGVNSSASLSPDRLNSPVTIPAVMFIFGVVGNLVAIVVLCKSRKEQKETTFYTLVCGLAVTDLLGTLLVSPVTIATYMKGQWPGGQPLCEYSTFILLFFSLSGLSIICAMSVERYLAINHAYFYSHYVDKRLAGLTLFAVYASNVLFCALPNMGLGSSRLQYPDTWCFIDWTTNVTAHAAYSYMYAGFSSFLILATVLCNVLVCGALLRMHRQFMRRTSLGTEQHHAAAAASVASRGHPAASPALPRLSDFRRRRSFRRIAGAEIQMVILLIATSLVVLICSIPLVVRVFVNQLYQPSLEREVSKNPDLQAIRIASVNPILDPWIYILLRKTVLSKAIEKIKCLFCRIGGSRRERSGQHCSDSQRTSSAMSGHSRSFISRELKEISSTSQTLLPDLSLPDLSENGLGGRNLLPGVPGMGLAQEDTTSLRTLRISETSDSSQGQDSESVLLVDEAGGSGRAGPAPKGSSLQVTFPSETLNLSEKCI
PTGER4 (EP4), sequence (P35408 whole entry): as above
PTGER2 (EP2), sequence (P43116 whole entry): as the sequence (P43116 whole entry) above

By IC50 is commonly meant the midpoint of a concentration-inhibition curve. As to `CCOc1cc(-c2cc(NCCc3cc4c(cc3SC)OCCO4)ncn2)ccc1OCC(=O)O` [Ex 145], the IC50 in experiment [1] was 0.09 µM; in experiment [2], 0.134 µM; in experiment [3], 0.519 µM.

For the molecule `O=C(O)c1ccc(-c2cc(NCCc3ccc4c(c3)CCC4)ncn2)cc1OC1CCC1` [Ex 206, 2-Cyclobutoxy-4-[6-(2-indan-5-yl-ethylamino)-pyrimidin-4-yl]-benzoic acid], the half-maximal inhibitory concentration (IC50) in experiment [1] is 0.304 µM; in experiment [2], 0.248 µM; in experiment [3], 0.572 µM.

As to `O=C(O)c1ccc(-c2cc(NCCc3ccc4ccsc4c3)ncn2)cc1OC1CCC1` [Ex 147], the 50% inhibitory concentration (IC50) amounted to 0.219 µM in experiment [1], 0.141 µM in experiment [2] and 0.571 µM in experiment [3].

For `CCOc1cc(-c2cc(NCCc3ccc4ccccc4c3F)ncn2)sc1C(=O)O` [Ex 11, 3-Ethoxy-5-{6-[2-(1-fluoro-naphthalen-2-yl)-ethylamino]-pyrimidin-4-yl}-thiophene-2-carboxylic acid], the IC50 in experiment [1] is 0.013 µM; in experiment [2], 0.007 µM; in experiment [3] it was 0.277 µM.

As for `CCOc1cc(-c2cc(NCCc3ccc4c(c3)OCCC4)ncn2)sc1C(=O)O` [Ex 58, 5-[6-(2-Chroman-7-yl-ethylamino)-pyrimidin-4-yl]-3-ethoxy-thiophene-2-carboxylic acid], the half-maximal inhibitory concentration (IC50) in experiment [1] came out at 0.013 µM; in experiment [2], 0.03 µM; in experiment [3], 9.39 µM.

On to `CSc1cc(-c2cc(NCCc3cc(C)c4c(c3)OCCO4)ncn2)ccc1C(=O)O` [Ex 292], for which the concentration for half-maximal inhibition (IC50) worked out at 1.51 µM in experiment [1], 0.538 µM in experiment [2] and 0.688 µM in experiment [3].

For the molecule `CCOc1cc(-c2cc(NCCc3ccc4c(ccn4C)c3)ncn2)sc1C(=O)O` [Ex 65, 3-Ethoxy-5-{6-[2-(1-methyl-1H-indol-5-yl)-ethylamino]-pyrimidin-4-yl}-thiophene-2-carboxylic acid], the values for the IC50 in experiment [1], in experiment [2] and in experiment [3] were 0.033 µM, 0.035 µM and 0.304 µM, respectively.

Consider `CCOc1cc(-c2cc(NCCc3cc4ccccc4cc3OC)ncn2)ccc1OCC(=O)O` [Ex 122, (2-Ethoxy-4-{6-[2-(3-methoxy-naphthalen-2-yl)-ethylamino]-pyrimidin-4-yl}-phenoxy)-acetic acid], for which the concentration for half-maximal inhibition (IC50) in experiment [1] came to 0.019 µM; in experiment [2], 0.095 µM; in experiment [3], 0.324 µM.

Regarding `CCSc1cc(-c2cc(NCCc3c(F)cc4ncccc4c3F)ncn2)ccc1C(=O)O` [Ex 153], the half-inhibitory concentration (IC50) amounted to 0.757 µM in experiment [1], 0.146 µM in experiment [2] and 0.34 µM in experiment [3].

Turning to `O=C(O)c1ccc(-c2cc(NCCc3ccc4c(c3)CCCO4)ncn2)cc1OC1CCC1` [Ex 266, 4-[6-(2-Chroman-6-yl-ethylamino)-pyrimidin-4-yl]-2-cyclobutoxy-benzoic acid], the figures for the concentration for half-maximal inhibition (IC50) in experiment [1], in experiment [2] and in experiment [3] were 0.444 µM, 0.428 µM and 0.537 µM, respectively.

As for `CSc1cc(-c2cc(NCCc3ccc4c(c3)OCCO4)ncn2)ccc1C(=O)O` [Ex 310], the concentration for half-maximal inhibition (IC50) was 0.937 µM in experiment [1], 0.683 µM in experiment [2] and 0.564 µM in experiment [3].

As to `CSc1cc(-c2cc(NCCc3cc(F)c4c(c3)OCCO4)ncn2)ccc1C(=O)O` [Ex 216], the IC50 amounted to 0.307 µM in experiment [1], 0.267 µM in experiment [2] and 0.49 µM in experiment [3].

`Cc1csc2ccc(CCNc3cc(-c4ccc(C(=O)O)c(OC5CCC5)c4)ncn3)cc12` [Ex 306]: the IC50 in experiment [1] was determined as 0.61 µM; in experiment [2], 0.654 µM; in experiment [3], 0.274 µM.

As for `CCOc1cc(-c2cc(NCCc3ccc4ccccc4c3Cl)ncn2)sc1C(=O)O` [Ex 90, 5-{6-[2-(1-Chloro-naphthalen-2-yl)-ethylamino]-pyrimidin-4-yl}-3-ethoxy-thiophene-2-carboxylic acid], the IC50 is 0.026 µM in experiment [1], 0.055 µM in experiment [2] and 0.378 µM in experiment [3].

For the molecule `CCOc1cc(-c2cc(NCCc3ccc4ccccc4c3C)ncn2)ccc1OCC(=O)O` [Ex 166], the IC50 in experiment [1] came out at 0.049 µM; in experiment [2], 0.165 µM; in experiment [3], 0.297 µM.

Consider `CCOc1cc(-c2cc(NCCc3cc4c(cc3OC)CCCC4)ncn2)ccc1OCC(=O)O` [Ex 143], for which the figures for the IC50 in experiment [1], in experiment [2] and in experiment [3] were 0.022 µM, 0.128 µM and 0.787 µM, respectively.

Turning to `CSc1cc(-c2cc(NCCc3cc4ccoc4cc3F)ncn2)ccc1C(=O)O` [Ex 238, 4-{6-[2-(6-Fluoro-benzofuran-5-yl)-ethylamino]-pyrimidin-4-yl}-2-methylsulfanyl-benzoic acid], the half-inhibitory concentration (IC50) in experiment [4] is 0.055 µM; in experiment [2], 0.343 µM; in experiment [3] it was 0.075 µM.

Regarding `CCOc1cc(-c2cc(NCCc3c(OC)cc4occc4c3C)ncn2)ccc1C(=O)O` [Ex 221, 2-Ethoxy-4-{6-[2-(6-methoxy-4-methyl-benzofuran-5-yl)-ethylamino]-pyrimidin-4-yl}-benzoic acid], the IC50 amounted to 0.008 µM in experiment [4], 0.285 µM in experiment [2] and 0.002 µM in experiment [3].

Turning to `CCOc1cc(-c2cc(NCCc3ccc4cc[nH]c4c3)ncn2)ccc1OC(C)C(=O)O` (stereo not drawn) [Ex 223], the results for the half-maximal inhibitory concentration (IC50) in experiment [4], in experiment [2] and in experiment [3] were 0.329 µM, 0.288 µM and 0.199 µM, respectively.

As for `O=C(O)c1ccc(-c2cc(NCCc3ccc4cc[nH]c4c3)ncn2)cc1OC1CCC1` [Ex 278, 2-Cyclobutoxy-4-{6-[2-(1H-indol-6-yl)-ethylamino]-pyrimidin-4-yl}-benzoic acid], the half-maximal inhibitory concentration (IC50) in experiment [4] is 0.281 µM; in experiment [2], 0.477 µM; in experiment [3], 0.187 µM.

As to `c1nc(NCCc2ccc3cc[nH]c3c2)cc(-c2ccc3[nH]ccc3c2)n1` [Ex 226, [2-(1H-Indol-6-yl)-ethyl]-[6-(1H-indol-5-yl)-pyrimidin-4-yl]-amine], the IC50 is 0.151 µM in experiment [4], 0.291 µM in experiment [2] and 0.25 µM in experiment [3].

In the case of `CCOc1cc(-c2cc(NCCc3cc4ccoc4cc3F)ncn2)ccc1C(=O)O` [Ex 227, 2-Ethoxy-4-{6-[2-(6-fluoro-benzofuran-5-yl)-ethylamino]-pyrimidin-4-yl}-benzoic acid], the 50% inhibitory concentration (IC50) in experiment [4] was determined as 0.142 µM; in experiment [2] it was 0.293 µM; in experiment [3], 0.088 µM.

Take `Cc1cc2c(cc1CCNc1cc(-c3ccc(C(=O)O)c(OC4CCC4)c3)ncn1)OC=CO2` [Ex 288]: the values for the IC50 in experiment [4], in experiment [2] and in experiment [3] were 0.156 µM, 0.523 µM and 0.085 µM, respectively.

In the case of `CCOc1cc(-c2cc(NCCc3cc4c(cnn4C)cc3OC)ncn2)sc1C(=O)O` [Ex 251], the IC50 in experiment [4] came out at 0.105 µM; in experiment [2], 0.369 µM; in experiment [3], 0.132 µM.

Regarding `Fc1cc2ncccc2c(F)c1CCNc1cc(-c2ccc3[nH]ccc3c2)ncn1` [Ex 330, [2-(5,7-Difluoro-quinolin-6-yl)-ethyl]-[6-(1H-indol-5-yl)-pyrimidin-4-yl]-amine], the concentration for half-maximal inhibition (IC50) in experiment [4] turned out to be 0.158 µM; in experiment [2], 1.04 µM; in experiment [3], 0.249 µM.

For `CCOc1cc(-c2cc(NCCc3cc4c(cc3OC(F)F)OCO4)ncn2)ccc1C(=O)O` [Ex 325], the values for the IC50 in experiment [4], in experiment [2] and in experiment [3] were 0.441 µM, 0.887 µM and 0.332 µM, respectively.

On to `CCOc1cc(-c2cc(NCCc3cc4c(cc3OC)OCO4)ncn2)ccc1C(=O)O` [Ex 315, 2-Ethoxy-4-{6-[2-(6-methoxy-benzo[1,3]dioxol-5-yl)-ethylamino]-pyrimidin-4-yl}-benzoic acid], for which the IC50 was determined as 0.134 µM in experiment [4], 0.703 µM in experiment [2] and 0.073 µM in experiment [3].
